Read-outs that look alike come from different tables or passages of the source. Marks after values point to notes of the source that are not given here.
Tests used:
[1] = system: diet-induced obese (DIO) male Sprague Dawley rats; test: DIO rat 4-week constant sc infusion: body weight; assay type: in vivo; details: DIO rats
Method: (§1) Various metabolic and PK parameters were evaluated.
(§2) Study Design. The Polypeptide Conjugates were tested relative to vehicle (50% DMSO in sterile water) and parent compounds alone and in combination (see Table 1).
(§3) Food intake and body weight were measured weekly. Body composition was assessed on day −1 and day 28 using an NMR instrument (Echo Medical Systems, Houston, Tex.). Adiposity (percent fat mass) was defined as the amount of fat mass relative to body weight (fat mass/body weight×100). Blood was collected via tail vein on day 14. On day 28 a sample of blood was drawn via the jugular vein and animals were euthanized by isoflurane overdose. Mini-pumps were immediately removed, animals were subjected to a brief NMR scan, and tissues were collected for future histological examination and preliminary toxicological assessment.
(§4) Statistical Analysis. Data were analyzed using one-way analysis of variance (ANOVA) with Newman-Keuls post-hoc comparisons. Significance was assumed for p<0.05. Graphs were generated using Prism 4 for Windows (Graphpad Software, San Diego, Calif.). All data points are expressed as mean±SEM.

[2] = human plasma, 5 hr incubation; detection limit 10%
[3] = in vivo blood calcium lowering (amylin agonist property)
[4] = system: diet-induced obese (DIO) male Sprague Dawley rats; test: DIO rat 4-week sc infusion: hormone and metabolite analyses (HbA1c, insulin, lipids, glucose); assay type: in vivo; details: for Insulin 14 day / Insulin 28 day: fed state plasma; for Glucose / HDL cholesterol / Total cholesterol / Triglycerides: plasma after 28 days
Method: as §1, §2, §3, §4
(§5) Hormone and metabolite analyses. Plasma levels of study drug were measured at day 14 and termination by an ELISA. Whole blood percent hemoglobin A1c (% HbA1c), plasma triglyceride, total cholesterol, HDL cholesterol and plasma glucose at day 14 and at termination were measured using an Olympus bioanalyzer (Olympus America Diagnostics). Plasma insulin levels at day 14 and at termination were analyzed by an ELISA kit (Rat/Mouse Insulin ELISA, Linco Diagnostics).
Plasma parameters. The effects of the parent and Polypeptide Conjugate compounds on the following plasma parameters were determined: percent hemoglobin A1c (HbA1c), fed state plasma insulin, and concentration of the Polypeptide Conjugate in plasma, at 14 and 28 days.

[5] = system: diet-induced obese (DIO) male Sprague Dawley rats; test: DIO rat 4-week constant sc infusion: cumulative food intake; assay type: in vivo; details: highest dose tested (100 nmol/kg/d)
Method: as §1, §2, §3, §4

rats = test: acute kaolin intake (pica, nausea) and chow intake in rats; assay type: in vivo, rat; details: 30 nmol/kg/d, 24 hr post injection
Method: To investigate possible nausea effects of the conjugate polypeptide, acute kaolin intake was measured in rats. Pica behavior (ingestion of dirt/clay) is a marker of nausea in rodents, typically associated with reduced food intake and weight loss. Pica can be assessed by measuring intake of the synthetic clay kaolin. […] Rats were acclimated to kaolin for 3 days as kaolin clay mixed in with regular chow. A 4 hr and a 24 hr baseline kaolin and chow intake were then measured. Subsequently, rats were fasted for approximately 16 hrs after which test compound was injected at the dose indicated below. At 24 hr post injection chow and kaolin consumption was measured.

male Sprague Dawley rats = test: delay of gastric emptying (acetaminophen appearance in plasma); assay type: in vivo, rat; details: 1 nmol/kg single sc injection
Method: Polypeptide Conjugates and parent compounds were analyzed for their ability to delay gastric emptying in rats. […] Rats then received an oral gavage of 33 mg acetaminophen/1 ml Orablend (Paddock Laboratories, Inc., MN USA) at t=3.5 hr, 5.5 hr or 7.5 hr post-injection. Blood was collected for measurement of acetaminophen at 4 hr, 6 hr or 8 hr after SC injection. Gastric emptying was assessed by the appearance of acetaminophen in plasma 30 min after oral gavage.

[6] = acute reduction of food intake; assay type: in vivo
[7] = system: diet-induced obese (DIO) male Sprague Dawley rats; test: DIO rat 4-week sc infusion: body composition by NMR; assay type: in vivo
Method: as §1, §2, §3, §4
To correct for loss of body weight, reductions in fat and lean mass were adjusted for terminal body weight to calculate the change in adiposity (percent fat mass) and change in percent lean mass.

[8] = DIO rats, sc infusion
Method: as §1, §2, §3, §5

HGEGTFTSDLSKQLEEEAVRLFIEWLKQGGPSKEIISGGGKCNTATCVLGRLSQELHRLQ TYPRTNTGSNTY-NH2 [Cmpd 2A]
potency at reducing body weight via sustained infusion relative to Cmpd 3A [1]: several fold more potent | four week vehicle-corrected weight loss ([1]; sc infusion, 100 nmol/kg/d): −31.5±2.7% | Maximal weight loss ([1]; sc infusion, 100 nmol/kg/d group): −27.8±5.3% | body weight over the 28 day treatment relative to vehicle ([1]; sc infusion, doses of Table 1 (conjugates 3, 10, 30 and 100 nmol/kg/d), p<0.05): dose-dependently reduced body weight significantly | metabolites detected [2]: No metabolites were detected | blood calcium [3]: lower blood calcium | HbA1c 14 day ([4]; 3 nmol/kg/day): 4.9 ± 0.1% | Insulin 14 day ([4]; 3 nmol/kg/day): 1.8 ± 0.6^b ng/mL | HbA1c 28 day ([4]; 3 nmol/kg/day): 4.6 ± 0.1% | Insulin 28 day ([4]; 3 nmol/kg/day): 2.2 ± 0.9 ng/mL | Glucose ([4]; 3 nmol/kg/day): 132 ± 9 mg/dL | HDL cholesterol ([4]; 3 nmol/kg/day): 33 ± 2 mg/dL | Total cholesterol ([4]; 3 nmol/kg/day): 116 ± 8 mg/dL | Triglycerides ([4]; 3 nmol/kg/day): 295 ± 75^b mg/dL | HbA1c 14 day ([4]; 10 nmol/kg/day): 4.9 ± 0.1^b % | Insulin 14 day ([4]; 10 nmol/kg/day): 1.5 ± 0.2^b ng/mL | HbA1c 28 day ([4]; 10 nmol/kg/day): 4.6 ± 0.1% | Insulin 28 day ([4]; 10 nmol/kg/day): 1.0 ± 0.2 ng/mL | Glucose ([4]; 10 nmol/kg/day): 115 ± 6 mg/dL | HDL cholesterol ([4]; 10 nmol/kg/day): 33 ± 5 mg/dL | Total cholesterol ([4]; 10 nmol/kg/day): 115 ± 14 mg/dL | Triglycerides ([4]; 10 nmol/kg/day): 146 ± 41^b mg/dL | HbA1c 14 day ([4]; 30 nmol/kg/day): 4.8 ± 0.1% | Insulin 14 day ([4]; 30 nmol/kg/day): 1.8 ± 0.5^b ng/mL | HbA1c 28 day ([4]; 30 nmol/kg/day): 4.6 ± 0.1% | Insulin 28 day ([4]; 30 nmol/kg/day): 0.8 ± 0.1 ng/mL | Glucose ([4]; 30 nmol/kg/day): 111 ± 2 mg/dL | HDL cholesterol ([4]; 30 nmol/kg/day): 32 ± 1 mg/dL | Total cholesterol ([4]; 30 nmol/kg/day): 112 ± 4 mg/dL | Triglycerides ([4]; 30 nmol/kg/day): 128 ± 25^b mg/dL | HbA1c 14 day ([4]; 100 nmol/kg/day): 4.8 ± 0.1% | Insulin 14 day ([4]; 100 nmol/kg/day): 1.2 ± 0.2^b ng/mL | HbA1c 28 day ([4]; 100 nmol/kg/day): 4.5 ± 0.1% | Insulin 28 day ([4]; 100 nmol/kg/day): 0.7 ± 0.1 ng/mL | Glucose ([4]; 100 nmol/kg/day): 110 ± 4 mg/dL | HDL cholesterol ([4]; 100 nmol/kg/day): 30 ± 1 mg/dL | Total cholesterol ([4]; 100 nmol/kg/day): 107 ± 3 mg/dL | Triglycerides ([4]; 100 nmol/kg/day): 139 ± 17^b mg/dL | total food intake relative to single parent peptide administration [5]: significantly reduced | Inhibited food intake (rats): Yes ~68% | Kaolin intake (rats): 0.3 g | Percent Inhibition of Gastric Emptying 4 hr (male Sprague Dawley rats; 4 hr): 79 | Percent Inhibition of Gastric Emptying 6 hr (male Sprague Dawley rats; 6 hr): 49 | Percent Inhibition of Gastric Emptying 8 hr (male Sprague Dawley rats; 8 hr): 4 | potency at reducing food intake acutely compared with Cmpd 3A [6]: more potent | Terminal Fat Mass ([7]; 3 nmol/kg/d, day 28): 71.4 ± 12.9^a,b g | Terminal Lean Mass ([7]; 3 nmol/kg/d, day 28): 330.5 ± 7.3^a,b g | Terminal Fat Mass ([7]; 10 nmol/kg/d, day 28): 35.8 ± 7.7^c,d g | Terminal Lean Mass ([7]; 10 nmol/kg/d, day 28): 280.6 ± 22.6^b g | Terminal Fat Mass ([7]; 30 nmol/kg/d, day 28): 32.4 ± 3.8^c,d g | Terminal Lean Mass ([7]; 30 nmol/kg/d, day 28): 306.5 ± 13.2^a,b g | Terminal Fat Mass ([7]; 100 nmol/kg/d, day 28): 12.7 ± 4.3^d g | Terminal Lean Mass ([7]; 100 nmol/kg/d, day 28): 277.8 ± 17.8^b g | change in adiposity (percent fat mass) ([7]; 100 nmol/kg/d, day 28): −12.2±1.3% | adiposity compared to vehicle controls ([7]; all doses of Table 1, day 28): significantly reduced | percent lean mass relative to vehicle controls ([7]; all doses, day 28): did not alter percent lean mass | plasma drug level (Cmpd 2A or Cmpd 1A) 14 day ([8]; 3 nmol/kg/day): 15 ± 6^a ng/mL | plasma drug level (Cmpd 2A or Cmpd 1A) 28 day ([8]; 3 nmol/kg/day): 65 ± 35^a ng/mL | plasma drug level (Cmpd 2A or Cmpd 1A) 14 day ([8]; 10 nmol/kg/day): 48 ± 16^a ng/mL | plasma drug level (Cmpd 2A or Cmpd 1A) 28 day ([8]; 10 nmol/kg/day): 345 ± 67^a ng/mL | plasma drug level (Cmpd 2A or Cmpd 1A) 14 day ([8]; 30 nmol/kg/day): 65 ± 7^a ng/mL | plasma drug level (Cmpd 2A or Cmpd 1A) 28 day ([8]; 30 nmol/kg/day): 540 ± 232^a ng/mL | plasma drug level (Cmpd 2A or Cmpd 1A) 14 day ([8]; 100 nmol/kg/day): 284 ± 79^b ng/mL | plasma drug level (Cmpd 2A or Cmpd 1A) 28 day ([8]; 100 nmol/kg/day): 1985 ± 717^b ng/mL

Reference: patent publication US20140066370A1, “Polypeptide Conjugate” (priority 2009, published 2014)
